{"source": "patent US11241398B2", "about": "“Affinity medicant conjugate” (Califia Pharma Inc., priority 2014, dated 2022)", "key": {"8392B cell line [1]": {"system": "8392B cell line", "experiment": "two hour toxicity: inhibition of 50% of DNA synthesis activity, nontarget cell line", "type": "cell-based", "details": "read-out: Mean IC50 value, 8392B Nontarget Cell Line, 2 hr exposure, mean ± SD, N = 3 unless otherwise indicated", "protocol": "(§1) The MV522 cell line is a lung-derived adenocarcinoma cell line. In various embodiments of the invention, the MV522 cell line represents a “target” cell line. […] The two hour toxicity data represents the concentration of a given analog for which a two hour exposure will inhibit 50% of the DNA synthesis activity in a given cell line. The 48 hour exposure data represents the concentration at which a given analog with a 48 hour exposure will inhibit the growth or viability in a given cell line as defined by the standard Trypan Blue Exclusion assay."}, "MV522 cell line [2]": {"system": "MV522 cell line", "experiment": "48 hour exposure, growth or viability by Trypan Blue Exclusion assay, target cell line", "type": "cell-based", "details": "read-out: Mean IC50 value, MV522 Target Cell Line, 48 hr exposure, mean ± SD, N = 3 unless otherwise indicated", "protocol": "as §1"}, "8392B cell line [3]": {"system": "8392B cell line", "experiment": "48 hour exposure, growth or viability by Trypan Blue Exclusion assay, nontarget cell line", "type": "cell-based", "details": "for IC50: read-out: Mean IC50 value, 8392B Nontarget Cell Line, 48 hr exposure, 8392B nontarget cell line, 48 hr exposure, mean ± SD, N = 3 unless otherwise indicated", "protocol": "as §1"}, "MV522 cell line [4]": {"system": "MV522 cell line", "experiment": "two hour toxicity: inhibition of 50% of DNA synthesis activity, target cell line", "details": "for cytotoxicity (in words): see Table XV; for IC50: read-out: Mean IC50 value, MV522 Target Cell Line, 2 hr exposure, MV522 target cell line, 2 hr exposure, mean ± SD, N = 3 unless otherwise indicated", "protocol": "as §1"}, "[5]": {"system": "Prostate LnCAP (positive PSA)", "experiment": "activity of PSA cleavable analogs, 48 hour exposure, PSA positive cell line", "type": "cell-based", "details": "N = 3, mean ± SD"}, "HT29 (ER Negative)": {"system": "HT29 (ER Negative)", "experiment": "cytotoxic data IC50, 2 hour exposure, cells not expressing the estrogen receptor", "type": "cell-based", "details": "N = 3, mean ± SD", "excerpt": "(§2) MCF7 over express estrogen alpha-receptors.\n(§3) MCF7 cells over express estrogen alpha-receptors."}, "MCF7 (ER positive)": {"system": "MCF7 (ER positive)", "experiment": "cytotoxic data IC50, 2 hour exposure, cells expressing the estrogen receptor", "type": "cell-based", "details": "N = 3, mean ± SD", "excerpt": "as §2, §3"}}, "data": [{"smiles": "CC1=C(CCCNS(N)(=O)=O)C2=CC3(CC3)C(C)(O)C(=O)C2=C1", "note": "(stereo not drawn) [Analog 264]", "values": [{"measurement": "IC50", "setting": "8392B cell line [1]", "value": "> 85", "unit": "µM"}, {"measurement": "IC50", "setting": "MV522 cell line [2]", "value": "0.076 ± 0.017", "unit": "µM"}]}, {"smiles": "CC(=O)ON(C(C)=O)c1ccc(C(=O)OCC2(C)C=C3C(=O)C(C)(O)C4(CC4)C(C)=C3C2OC(=O)c2ccc(N(OC(C)=O)C(C)=O)cc2)cc1", "note": "(stereo not drawn) [Analog 140]", "values": [{"measurement": "IC50", "setting": "MV522 cell line [2]", "value": "> 14", "unit": "µM"}, {"measurement": "IC50", "setting": "8392B cell line [3]", "value": "> 14", "unit": "µM"}]}, {"smiles": "CC1=C2C(=CC(C)(C)[C@@H]2OC(=O)CCCCCN2C(=O)C=CC2=O)C(=O)[C@](C)(O)C12CC2", "note": "[Analog 218]", "values": [{"measurement": "cytotoxicity (in words)", "setting": "MV522 cell line [4]", "value": "cytotoxic with nM activity"}, {"measurement": "IC50", "setting": "MV522 cell line [2]", "value": "0.6 ± 0.2", "unit": "µM"}, {"measurement": "IC50", "setting": "8392B cell line [3]", "value": "0.6 ± 0.1", "unit": "µM"}]}, {"smiles": "CC1=C2C(=O)C(C)(CO)C=C2C(=O)C(C)(O)C12CC2", "note": "(stereo not drawn) [Analog 099]", "values": [{"measurement": "IC50", "setting": "MV522 cell line [4]", "value": "8.4 ± 1.1", "unit": "µM"}, {"measurement": "IC50", "setting": "8392B cell line [1]", "value": "4 ± 0.4", "unit": "µM"}]}, {"smiles": "CC1=C2[C@@H](O)C(C)(C)[C@H]3C[C@@]23C(=O)[C@](C)(O)C12CC2", "note": "[Analog 252]", "values": [{"measurement": "IC50", "setting": "MV522 cell line [4]", "value": "> 380", "unit": "µM"}, {"measurement": "IC50", "setting": "8392B cell line [1]", "value": "> 380", "unit": "µM"}, {"measurement": "IC50", "setting": "8392B cell line [3]", "value": "> 380", "unit": "µM"}]}, {"smiles": "CC1=C(CN2C(=O)C=CC2=O)C2=C(C)C3(CC3)[C@@](C)(O)C(=O)C2=C1", "note": "[Analog 189]", "values": [{"measurement": "cytotoxicity (in words)", "setting": "MV522 cell line [4]", "value": "cytotoxic with nM activity"}]}, {"smiles": "CC1=C(CSCCC(N)C(=O)O)C2=C(C)C3(CC3)[C@@](C)(O)C(=O)C2=C1", "note": "(stereo partly drawn) [Analog 097]", "values": [{"measurement": "IC50", "setting": "8392B cell line [1]", "value": "> 82", "unit": "µM"}]}, {"smiles": "CC1=C2C(=CC(C)(CO[Si](C)(C)C(C)(C)C)C2N)C(=O)C(C)(O)C12CC2", "note": "(stereo not drawn) [Analog 205]", "values": [{"measurement": "IC50", "setting": "MV522 cell line [4]", "value": "8.4 ± 2.2", "unit": "µM"}, {"measurement": "IC50", "setting": "8392B cell line [1]", "value": "> 185", "unit": "µM"}, {"measurement": "IC50", "setting": "8392B cell line [3]", "value": "> 2.6", "unit": "µM"}]}, {"smiles": "CC1=C2C(=C[C@@](C)(CO[Si](C)(C)C(C)(C)C)[C@@H]2OC(=O)[C@@H]2CCCN2C(=O)[C@H](CO)NC(=O)[C@@H](N)CO)C(=O)[C@](C)(O)C12CC2", "note": "[Analog 214]", "values": [{"measurement": "IC50", "setting": "[5]", "value": "0.19 ± 0.03", "unit": "µM"}]}, {"smiles": "CC1=C2C(=CC(C)(COC(=O)CCCC(=O)O)C2OC(=O)CCCC(=O)O)C(=O)C(C)(O)C12CC2", "note": "(stereo not drawn) [Analog 117]", "values": [{"measurement": "IC50", "setting": "8392B cell line [3]", "value": "0.01 ± 0.002", "unit": "µM"}]}, {"smiles": "CC1=C(CCCNC(=O)OCC2=C(C(=O)O)N3C(=O)C(NC(=O)Cc4cccs4)C3S(=O)(=O)C2)C2=C(C)C3(CC3)C(C)(O)C(=O)C2=C1", "note": "(stereo not drawn) [Analog 274]", "values": [{"measurement": "IC50", "setting": "8392B cell line [1]", "value": "> 46", "unit": "µM"}, {"measurement": "IC50", "setting": "8392B cell line [3]", "value": "> 4.5", "unit": "µM"}]}, {"smiles": "CC(=O)ON(C(C)=O)c1ccc(C(=O)OCC2(C)C=C3C(=O)C(C)(O)C4(CC4)C(C)=C3C2O)cc1", "note": "(stereo not drawn) [Analog 136]", "values": [{"measurement": "IC50", "setting": "8392B cell line [1]", "value": "> 6.2", "unit": "µM"}]}, {"smiles": "CC1=C2C(=CC(C)(C)[C@@H]2OC(=O)CCCC(=O)Oc2ccc3c(c2)CC[C@@H]2[C@@H]3CC[C@]3(C)C(=O)CC[C@@H]23)C(=O)[C@](C)(O)C12CC2", "note": "[Analog 107]", "values": [{"measurement": "IC50", "setting": "MV522 cell line [4]", "value": "> 50", "unit": "µM"}, {"measurement": "IC50", "setting": "8392B cell line [1]", "value": "> 50", "unit": "µM"}]}, {"smiles": "CC1=C(CO)C2=C(C)C3(CC3)[C@@](C)(O)C(=O)C2=C1", "note": "[Analog 002]", "values": [{"measurement": "inhibition of the nontarget cell line with prolonged exposure", "setting": "8392B cell line [3]; prolonged exposure period (e.g. 48 hours)", "value": "can eventually inhibit the nontarget cell line"}]}, {"smiles": "CC1=C(CCC(=O)Oc2ccc3c(c2)CCC2C3CCC3(C)C(O)CCC23)C2=C(C)C3(CC3)C(C)(O)C(=O)C2=C1", "note": "(stereo not drawn) [Analog 108]", "values": [{"measurement": "IC50", "setting": "HT29 (ER Negative)", "value": "> 55", "unit": "µM"}, {"measurement": "IC50", "setting": "MCF7 (ER positive)", "value": "14.1 ± 2.8", "unit": "µM"}, {"measurement": "IC50", "setting": "MV522 cell line [4]", "value": "12.3 ± 2.3", "unit": "µM"}, {"measurement": "IC50", "setting": "8392B cell line [1]", "value": "> 55", "unit": "µM"}, {"measurement": "IC50", "setting": "MV522 cell line [2]", "value": "0.52 ± 0.05", "unit": "µM"}]}, {"smiles": "CC1=C2C(=C[C@@](C)(CO[Si](C)(C)C(C)(C)C)[C@@H]2OC(=O)c2ccc(S(=O)(=O)F)cc2)C(=O)[C@](C)(O)C12CC2", "note": "[Analog 219]", "values": [{"measurement": "IC50", "setting": "MV522 cell line [4]", "value": "> 52", "unit": "µM"}, {"measurement": "IC50", "setting": "8392B cell line [1]", "value": "> 52", "unit": "µM"}, {"measurement": "IC50", "setting": "8392B cell line [3]", "value": "> 52", "unit": "µM"}]}, {"smiles": "CC1=C2C(=CC(C)(C)[C@@H]2OC(=O)c2ccc(S(=O)(=O)F)cc2)C(=O)[C@](C)(O)C12CC2", "note": "[Analog 222]", "values": [{"measurement": "IC50", "setting": "8392B cell line [1]", "value": 9.3, "unit": "µM"}]}, {"smiles": "CC1=CC2C(=C(C)C3(CC3)C(C)(O)C2O)C1=O", "note": "(stereo not drawn) [Analog 186]", "values": [{"measurement": "IC50", "setting": "MV522 cell line [4]", "value": "144 ± 32", "unit": "µM"}, {"measurement": "IC50", "setting": "MV522 cell line [2]", "value": "70 ± 16", "unit": "µM"}]}, {"smiles": "CC1=C2C(=O)C(C)(OC(C)C)CC2C(O)C(=O)C12CC2", "note": "(stereo not drawn) [Analog 183]", "values": [{"measurement": "IC50", "setting": "MV522 cell line [4]", "value": "> 120", "unit": "µM"}, {"measurement": "IC50", "setting": "8392B cell line [1]", "value": "> 120", "unit": "µM"}, {"measurement": "IC50", "setting": "8392B cell line [3]", "value": "> 235", "unit": "µM"}]}]}
